Earlier results, collected in US8247571B2, “Pyridinium and thiazolium conjugates including polyethylene glycols and methods of using the same” (Mycosol, Inc., priority 2005, dated 2012).

Tested on: roundworms, threadworms, and whipworms
Conditions: reported; U.S. Pat. Nos. 3,075,975 and 3,085,935

In the case of `CC[n+]1c(/C=C/c2ccc(N3CCCC3)cc2)cccc1/C=C/c1ccc(N2CCCC2)cc1.[I-]` [Stilbazium iodide], the anthelmintic effectiveness is given as “effective”.
